Results: patent US6713077B1, “Control of shoot/foliar feeding pests with pesticide seed treatments” (Monsanto Technology, LLC, priority 1999, dated 2004)
Like-named read-outs stand apart in the source and are kept apart here.

Columns and labels:
[1] = cited from earlier work
[2] = cited from earlier work; remark: listed apart in the source
[3] = test system: black cutworm larvae; test: Example 2: stand reduction of corn by black cutworm, tub test; assay type: in vivo
Procedure: (§1) A lambda-cyhalothrin seed treatment formulation was prepared from the WARRIOR T insecticide and corn seed was prepared and treated as described in Example 1, except that the treatment levels were 88, 185 and 381 gm active ingredient/100 kg seed. Treated and untreated seeds were planted and cultivated as described as described in Example 1. Again, FORCE 3GR was applied either in-furrow or incorporated into a 5 inch band on the soil surface at the time of planting. The tubs were overhead irrigated until the plants were infested with black cutworm larvae.
(§2) The corn plants were infested at 12 DAP, as described in Example 1. Plants were rated at 10 days after infestation (DAI) for the number of cut plants. The percent stand reduction due to plant cutting was calculated by dividing the number of cut plants into the number of plants present at infestation.

[4] = test system: black cutworm larvae; test: Example 4: stand reduction of corn by black cutworm in three soil types; assay type: in vivo; conditions: seed treatment 250 gm AI/100 kg of seed
Procedure: as §1, with “from” for “from the”, “level was 250” for “levels were 88, 185 and 381”, “1.” for “1. Again,”, “and” for “either in-furrow or”, “The untreated seed—with and without tefluthrin banding—and the treated seed were planted in three different soil types. […] The” for “The”
as §2

C#CCN1CC(=O)N(COC(=O)[C@@H]2C(C=C(C)C)C2(C)C)C1=O (mixture of isomers) [Imiprothrin]
Vapor pressure ([1]; 25° C.): 1.8 E-3 mPa

CC(C)[C@@H](Nc1ccc(C(F)(F)F)cc1Cl)C(=O)OC(C#N)c1cccc(Oc2ccccc2)c1 (mixture of isomers) [Tau-fluvalinate, (RS)-alpha-cyano-3-phenoxybenzyl(R)-2-[2-chloro-4-(trifluoromethyl)anilino]-3-methylbutanoate]
Vapor pressure ([1]; temperature not given): 9 E-8 mPa | Water solubility ([2]; 20° C.): 1.03 ppb (20° C.)

CC1(C)C(/C=C(\Cl)C(F)(F)F)C1C(=O)OC(C#N)c1cccc(Oc2ccccc2)c1 (racemic) [Cyhalothrin, [1α, 3α(Z)]-(±)-cyano-(3-phenoxyphenyl)methyl 3-(2-chloro-3,3,3-trifluoro-1-propenyl)-2,2-cimethylcyclopropanecarboxylate]
Vapor pressure ([1]; temperature not given): 0.001 mPa | Water solubility ([2]; 20° C.): 0.004 ppb (20° C.)

CC1(C)C(C=C(Cl)Cl)C1C(=O)OC(C#N)c1cccc(Oc2ccccc2)c1 (racemic) [Cypermethrin, (±) alpha-cyano-(3-phenoxyphenyl)methyl(+)-cis,trans-3-(2,2-dichloroethenyl)-2,2-dimethyl-cyclopropane carboxylate]
Vapor pressure ([1]; temperature not given): 2.3 E-4 mPa

CC(C)[C@H](C(=O)OC(C#N)c1cccc(Oc2ccccc2)c1)c1ccc(OC(F)F)cc1 (mixture of isomers) [Flucythrinate, (±)-cyano (3-phenoxyphenyl)methyl (±)-4-(difluoromethoxy)-alpha-(1-methylethyl) benzeneacetate]
Vapor pressure ([1]; 25° C.): 0.0012 mPa | Water solubility ([2]; 21° C.): 0.5 mg/l (21° C.)

CC1(C)C(C=C(Cl)Cl)C1C(=O)OC(C#N)c1cccc(Oc2ccccc2)c1 (racemic) [Zeta-cypermethrin, S-cyano (3-phenoxyphenyl)methyl (±) cis/trans 3-(2,2-dichloroethenyl) 2,2 dimethylcyclopropane carboxylate]
Vapor pressure ([1]; temperature not given): 2.5 E-4 mPa

CC1(C)[C@H](C(=O)O[C@H](C#N)c2cccc(Oc3ccccc3)c2)[C@@H]1/C=C\C(=O)OC(C(F)(F)F)C(F)(F)F [Acrinathrin, (S)-alpha-cyano-3-phenoxybenzyl(Z)-(IR-cis)-2,2-dimethyl-3-[2-(2,2,2-trifluoro-trifluoromethyl-ethoxycarbonyl)vinyl]cyclopropane carboxylate]
Vapor pressure ([1]; temperature not given): 4.4 E-5 mPa

C=CCC1=C(C)C(OC(=O)C2C(C=C(C)C)C2(C)C)CC1=O [Allethrin, (RS)-3-allyl-2-methyl-4-oxcyclopent-2-enyl-(1A,3R; 1R,3S)-2,2-dimethyl-3-(2-methylprop-1-enyl)cyclopropane carboxylate]
Vapor pressure ([1]; 21° C.): 0.16 mPa | Water solubility ([2]; in words): practically insol.

CC1(C)C(C=C(Cl)Cl)C1C(=O)OC(C#N)c1cccc(Oc2ccccc2)c1 (stereo not drawn) [Alpha cypermethrin, (IR cis) S and (IS cis) R enantiomer isomer pair of alpha-cyano-3-phenoxybenzyl-3-(2,2dichlorovinyl)-2,2-dimethylcyclopropane carboxylate]
Vapor pressure ([1]; temperature not given): 2.3 E-2 mPa

CC1(C)C(C=C(Cl)Cl)C1C(=O)OC(C#N)c1ccc(F)c(Oc2ccccc2)c1 (stereo not drawn) [Beta cyfluthrin]
Vapor pressure ([1]; no unit, temperature not given): 1.4 to 8.5 E-5 | Water solubility ([2]; 25° C.): 1.2-2.1 μg/l (25° C.)

CC1(C)[C@H](C=C(Cl)Cl)[C@H]1C(=O)O[C@@H](C#N)c1cccc(Oc2ccccc2)c1 [Beta-cypermethrin]
Vapor pressure ([1]; temperature not given): 1.8 E-4 mPa

C=CCC1=C(C)C(OC(=O)[C@@H]2[C@@H](C=C(C)C)C2(C)C)CC1=O (stereo partly shown) [Bioallethrin]
Vapor pressure ([1]; 25° C.): 43.9 mPa | Water solubility ([2]; temperature not given): 4.6 mg/L

CC(C)=C[C@@H]1[C@@H](C(=O)OCc2coc(Cc3ccccc3)c2)C1(C)C [Bioresmethrin, (1R-trans)-[5-(phenylmethyl)-3-furanyl]methyl 2,2-dimethyl-3-(2-methyl-1-propenyl)cyclopropanecarboxylate]
Vapor pressure ([1]; (Tech.)): 18.6 mPa | Vapor pressure ([1]; (d-resmethrin)): 0.45 mPa | Water solubility ([2]; temperature not given): <0.3 mg/L

CCOc1ccc(C2(C(=O)OC(C#N)c3cccc(Oc4ccccc4)c3)CC2(Cl)Cl)cc1 (stereo not shown) [Cycloprothrin, cyano-(3-phenoxyphenyl)methyl 2,2-dichloro-1-(4-ethoxyphenyl)cyclopropane carboxylate]
Vapor pressure ([1]; 20° C.): 2.13 E-3 mPa | Water solubility ([2]; 25° C.): 0.091 mg/l (25° C.)

CC1(C)C(C=C(Cl)Cl)C1C(=O)OC(C#N)c1ccc(F)c(Oc2ccccc2)c1 (stereo not shown) [Cyfluthrin, cyano(4-fluoro-3-phenoxyphenyl)methyl 3-(2,2-dichloroethenyl)-2,2-dimethyl-cyclopropanedarboxylate]
Water solubility ([2]; 25° C.): 2-4.3 μg/l (25° C.)

CC(C)=CC1C(C(=O)OC(C#N)c2cccc(Oc3ccccc3)c2)C1(C)C (stereo not shown) [Cyphenothrin]
Vapor pressure ([1]; 20° C.): 0.12 mPa | Water solubility ([2]; 25° C.): <10 μg/l (25° C.)

CC1(C)[C@H](C(=O)O[C@H](C#N)c2cccc(Oc3ccccc3)c2)[C@@H]1C=C(Br)Br [Deltamethrin, (s)-alpha-cyano-3-phenoxybenzyl (IR,3R)-3-(2,2-dibromovinyl)-2,2-dimethyl cyclopropanecarboxylate]
Vapor pressure ([1]; temperature not given): 1.24 E-5 mPa

C#CC(OC(=O)C1C(C=C(C)C)C1(C)C)/C(C)=C/CC (stereo not shown) [Empenthrin]
Vapor pressure ([1]; 23.6° C.): 14 mPa

CC(C)[C@H](C(=O)O[C@H](C#N)c1cccc(Oc2ccccc2)c1)c1ccc(Cl)cc1 [Esfenvalerate, (S)-cyano (3-phenoxyphenyl) methyl (S)-4-chloro-alpha-(1-methylethyl)benzeneacetate]
Vapor pressure ([1]; temperature not given): 2 E-4 mPa | Water solubility ([2]; temperature not given): 0.002 mg/L

CC1(C)C(C(=O)OC(C#N)c2cccc(Oc3ccccc3)c2)C1(C)C (stereo not drawn) [Fenpropathrin, alpha-cyano-3-phenoxybenzyl 2,2,3,3,-tetramethyl cyclopropoanecarboxylate]
Vapor pressure ([1]; temperature not given): 0.73 mPa | Water solubility ([2]; 25° C.): 14.1 μg/l (25° C.)

CC(C)C(C(=O)OC(C#N)c1cccc(Oc2ccccc2)c1)c1ccc(Cl)cc1 (stereo not drawn) [Fenvalerate, (s)-cyano(3-phenoxyphenyl)methyl 4-chloro alpha (1-methylethyl)benzeneacetate]
Vapor pressure ([1]; 20° C.): 1.92 E-2 mPa | Water solubility ([2]; temperature not given): <0.01 mg/L

CC1(C)[C@H](C(=O)O[C@H](C#N)c2cccc(Oc3ccccc3)c2)[C@@H]1/C=C(\Cl)C(F)(F)F [Lambda cyhalothrin, [1 alpha (s), 3 alpha(z)]-cyano(3-phenoxyphenyl)methyl-3-(2-chloro-3,3,3-trifluoro-1-propenyl)-2,2-dimethylcyclopropane carboxylate]
Vapor pressure ([1]; temperature not given): 2 E-4 mPa | STAND REDUCTION (%, 10 days after infestation) ([3]; seed treatment 88 gm AI/100 kg of seed): 19.4% | STAND REDUCTION (%, 10 days after infestation) ([3]; seed treatment 381 gm AI/100 kg of seed): total protection | STAND REDUCTION (%, 10 days after infestation) ([4]; SOIL TYPE I): 80.1% | STAND REDUCTION (%, 10 days after infestation) ([4]; SOIL TYPE II): 39.8% | STAND REDUCTION (%, 10 days after infestation) ([4]; SOIL TYPE III): 72.4%

CC1(C)C(C=C(Cl)Cl)C1C(=O)OCc1cccc(Oc2ccccc2)c1 (stereo not drawn) [Permethrin, (3-phenoxyphenyl)-methyl(+)cis-trans-3-(2,2-dichoroethenyl)-2,2-dimethylcyclopropanecarboxylate]
Vapor pressure ([1]; temperature not given): 0.07 mPa

CC(C)=CC1C(C(=O)OCc2cccc(Oc3ccccc3)c2)C1(C)C (stereo not drawn) [Phenothrin, 3-phenoxybenzyl-d,l-cistrans 2,2-dimethyl-3-(2-methylpropenyl)cyclopropane carboxylate]
Vapor pressure ([1]; 21.4° C.): 1.9 E-2 mPa | Water solubility ([2]; 25° C.): <9.7 μg/l (25° C.)

C#CCC1=C(C)C(OC(=O)C2C(C=C(C)C)C2(C)C)CC1=O (stereo not shown) [Prallethrin]
Vapor pressure ([1]; 23.1° C.): <0.013 mPa

CC(C)=CC1C(C(=O)OCN2C(=O)C3=C(CCCC3)C2=O)C1(C)C (stereo not drawn) [Tetramethrin, 3,4,5,6-tetra hydro-phthalimidomethyl-(IRS)-cis-trans-chrysanthemate]
Vapor pressure ([1]; 30° C.): 0.944 mPa

CC1(C)[C@H](C=C(Cl)Cl)[C@H]1C(=O)O[C@H](C#N)c1cccc(Oc2ccccc2)c1 [Theta cypermethrin]
Vapor pressure ([1]; temperature not given): 1.8 E-4 mPa

CC1(C)[C@H](C(=O)O[C@H](C#N)c2cccc(Oc3ccccc3)c2)[C@@H]1C(Br)C(Br)(Br)Br (stereo partly shown) [Tralomethrin]
Vapor pressure ([1]; 25° C.): 4.6 E-6 mPa

CC1(C)[C@H](C=C(Cl)Cl)[C@H]1C(=O)OCc1c(F)c(F)cc(F)c1F [Transfluthrin]
Vapor pressure ([1]; temperature not given): 0.4 mPa

CC(C)C(C(=O)OC(C#N)c1cccc(Oc2ccc(Br)cc2)c1)c1ccc(OC(F)F)cc1 (stereo not shown) [ZXI8901]
Vapor pressure ([1]; 20° C.): 1.6 E-4 mPa
